Legend:
TYK2 = TYK2 (Mus musculus (Mouse), UniProt Q9R117); experiment: Luciferase assay in L929 ISRE cells stimulated with IFN-α; type: cell-based; conditions: IFN-α 100 ng/mL; for inhibition at 0.01 µM: 10 nM, read-out: Inhibitory activity % (10 nM); for inhibition at 0.1 µM: 100 nM, read-out: Inhibitory activity % (100 nM); for inhibition at 1 µM: 1000 nM, read-out: Inhibitory activity % (1000 nM); for inhibition at 0.05 µM: 50 nM, read-out: Inhibitory activity % (50 nM); for inhibition at 0.2 µM: 200 nM, read-out: Inhibitory activity % (200 nM)
Sequence of TYK2 (Q9R117 whole entry): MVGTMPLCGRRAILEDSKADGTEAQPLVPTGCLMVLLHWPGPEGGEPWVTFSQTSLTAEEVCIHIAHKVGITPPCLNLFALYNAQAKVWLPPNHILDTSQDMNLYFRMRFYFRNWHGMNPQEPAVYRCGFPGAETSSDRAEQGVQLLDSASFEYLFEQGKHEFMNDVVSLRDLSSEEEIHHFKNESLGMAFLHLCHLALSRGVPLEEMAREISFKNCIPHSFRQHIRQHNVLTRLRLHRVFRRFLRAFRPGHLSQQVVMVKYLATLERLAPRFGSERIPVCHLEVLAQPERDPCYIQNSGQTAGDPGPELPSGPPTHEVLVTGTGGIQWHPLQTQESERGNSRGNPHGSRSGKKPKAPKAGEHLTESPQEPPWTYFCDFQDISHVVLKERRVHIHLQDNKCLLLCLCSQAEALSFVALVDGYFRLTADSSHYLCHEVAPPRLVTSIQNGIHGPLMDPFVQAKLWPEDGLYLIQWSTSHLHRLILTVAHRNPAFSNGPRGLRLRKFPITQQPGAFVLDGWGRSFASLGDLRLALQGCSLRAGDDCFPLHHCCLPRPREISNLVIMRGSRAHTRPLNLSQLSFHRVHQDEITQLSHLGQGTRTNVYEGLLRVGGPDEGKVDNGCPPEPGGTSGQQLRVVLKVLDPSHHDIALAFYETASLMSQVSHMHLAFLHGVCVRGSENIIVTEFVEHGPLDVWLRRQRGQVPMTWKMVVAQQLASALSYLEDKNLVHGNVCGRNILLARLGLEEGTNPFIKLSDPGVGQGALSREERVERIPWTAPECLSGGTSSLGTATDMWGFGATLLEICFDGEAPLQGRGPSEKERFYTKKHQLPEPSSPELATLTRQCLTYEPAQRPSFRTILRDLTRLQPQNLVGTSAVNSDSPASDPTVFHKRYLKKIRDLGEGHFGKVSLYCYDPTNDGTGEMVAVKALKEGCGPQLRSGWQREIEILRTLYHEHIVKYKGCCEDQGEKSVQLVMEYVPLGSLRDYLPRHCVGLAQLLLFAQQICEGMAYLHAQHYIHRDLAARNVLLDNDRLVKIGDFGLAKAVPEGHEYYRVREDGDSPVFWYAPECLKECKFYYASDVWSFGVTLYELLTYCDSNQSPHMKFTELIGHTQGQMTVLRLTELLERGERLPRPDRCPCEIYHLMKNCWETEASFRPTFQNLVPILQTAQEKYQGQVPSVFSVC
Method: • 1. L929 ISRE cells (5000 cells/well) were seeded on 96-well plates and incubated overnight at room temperature; • 2. The cells were pretreated by adding different concentrations (10 nM, 50 nM, 100 nM, 200 nM or 1000 nM) of the test compounds for 2 hours; • 3. Added IFN-α (100 ng/mL) to stimulate cells for 6 hours; • 4. Removed the upper medium, add PBS (100 μL) and washed, then removed PBS; • 5. Added PLB lysis solution (50 μL) to each well, shook the well for 15 minutes; • 6. Transferred PLB lysis solution (30 μL) to a new 96-well whiteboard, added LAR II reagent (LAR II), then quickly read the […]; • 7. Added Stop & Glo reagent (30 μL), then read the 450 nm OD value using the plate washer. • 8. The final results in Table 3 were the OD value in step 6/OD value in step 7.

TYK2 JH2 = TYK2 JH2 (Homo sapiens (Human), UniProt P29597); experiment: Competitive binding assay (kinase-tagged phage, qPCR), TYK2 JH2
Sequence of TYK2 JH2 (P29597 589-875): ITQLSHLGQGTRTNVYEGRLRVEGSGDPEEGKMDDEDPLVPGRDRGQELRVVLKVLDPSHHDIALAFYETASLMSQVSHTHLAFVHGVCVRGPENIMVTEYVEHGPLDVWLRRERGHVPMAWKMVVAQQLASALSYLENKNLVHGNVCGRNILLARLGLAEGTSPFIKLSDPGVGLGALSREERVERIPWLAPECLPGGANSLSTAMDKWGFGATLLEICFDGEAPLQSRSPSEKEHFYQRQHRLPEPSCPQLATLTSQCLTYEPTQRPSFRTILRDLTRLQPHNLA
Method: For most assays, kinase-tagged T7 phage strains were prepared in an E. coli host derived from the BL21 strain. E. coli were grown to log-phase and infected with T7 phage and incubated with shaking at 32° C. until lysis. The lysates were centrifuged and filtered to remove cell debris. The remaining kinases were produced in HEK-293 cells and subsequently tagged with DNA for qPCR detection. Streptavidin coated magnetic beads were treated with biotinylated small molecule ligands for 30 minutes at room temperature to generate affinity resins for kinase assays. The liganded beads were blocked with excess biotin and washed with blocking buffer (SeaBlock (Pierce), 1% BSA, 0.05% Tween 20, 1 mM DTT) to remove unbound ligand and to reduce non-specific binding. […] Test compounds were prepared as 111X stocks in 100% DMSO. Dissociation constants (Kds) were determined using an 11-point 3-fold compound dilution series with three DMSO control points. All compounds for Kd measurements are distributed by acoustic transfer (non-contact dispensing) in 100% DMSO. The compounds were then diluted directly into the assays such that the final concentration of DMSO was 0.9%. All reactions performed in polypropylene 384-well plate. Each was a final volume of 0.02 ml. The assay plates were incubated at room temperature with shaking for 1 hour and the affinity beads were washed with wash buffer (1×PBS, 0.05% Tween 20). The beads were then re-suspended in elution buffer (1×PBS, 0.05% Tween 20, 0.5 μM nonbiotinylated affinity ligand) and incubated at room temperature with shaking for 30 minutes. The kinase concentration in the eluates was measured by qPCR.
An 11-point 3-fold serial dilution of each test compound was prepared in 100% DMSO at 100× final test concentration and subsequently diluted to 1× in the assay (final DMSO concentration=1%). Most Kds were determined using a compound top concentration=30,000 nM. If the initial Kd determined was <0.5 nM (the lowest concentration tested), the measurement was repeated with a serial dilution starting at a lower top concentration.
Binding constants (Kds) were calculated with a standard dose-response curve using the Hill equation: […]
The Hill Slope was set to −1.
Curves were fitted using a non-linear least square fit with the Levenberg-Marquardt algorithm.

Row | Structure (SMILES) | inhibition at 1 µM (TYK2) | also measured
1 | CCC(=O)c1cnc(NC(=O)C2CC2)cc1Nc1cccc(-c2nc(P(C)(C)=O)ns2)c1OC [Compound B1, N-(4-((3-(3-(dimethylphosphoryl)-1,2,4-thiadiazol-5-yl)-2-methoxyphenyl)amino)-5-propionylpyridin-2-yl)cyclopropanecarboxamide] | 0% | inhibition at 0.01 µM (TYK2): 0%; inhibition at 0.1 µM (TYK2): 0%
2 | CCC(=O)c1cnc(NC(=O)C2CC2)cc1Nc1cccc(-c2nc(P(C)(C)=O)cs2)c1OC [Compound B6] | 36% | –
3 | CCC(=O)c1cnc(NC(=O)C2CC2)cc1Nc1cccc(-c2cccc(P(C)(C)=O)c2)c1OC [Compound B7] | 46% | –
4 | CCC(=O)c1cnc(NC(=O)C2CC2)cc1Nc1cccc(-c2ccc(P(C)(C)=O)nn2)c1OC [Compound B8] | 33% | –
5 | CCC(=O)c1cnc(NC(=O)C2CC2)cc1Nc1cccc(-c2cc(P(C)(C)=O)nn2C)c1OC [Compound B9] | 40% | –
6 | CCC(=O)c1cnc(NC(=O)C2CC2)cc1Nc1cccc(-c2ccccc2P(C)(C)=O)c1OC [Compound B10] | 50% | –
7 | CCC(=O)c1cnc(NC(=O)C2CC2)cc1Nc1cccc(-c2cc(P(C)(C)=O)n(C)n2)c1F [Compound B12] | 0% | –
8 | CCC(=O)c1cnc(NC(=O)C2CC2)cc1Nc1cccc(-c2cc(P(C)(C)=O)n(C)n2)c1C [Compound B14] | 27% | –
9 | CCC(=O)c1cnc(NC(=O)C2CC2)cc1Nc1cccc(-c2cc(P(C)(C)=O)n(C)n2)c1 [Compound B15] | 45% | –
10 | CCC(=O)c1cnc(NC(=O)C2CC2)cc1Nc1cccc(-c2cc(P(C)(C)=O)n(C3CC3)n2)c1OC [Compound B16] | 55% | inhibition at 0.01 µM (TYK2): 35%; inhibition at 0.1 µM (TYK2): 38%
11 | CCC(=O)c1cnc(NC(=O)C2CC2)cc1Nc1cc(F)cc(-c2cc(P(C)(C)=O)n(C)n2)c1OC [Compound B17] | 67% | inhibition at 0.01 µM (TYK2): 25%; inhibition at 0.1 µM (TYK2): 45%
12 | CCC(=O)c1nnc(NC(=O)C2CC2)cc1Nc1cccc(-c2cc(P(C)(C)=O)n(C)n2)c1OC [Compound B18, N-(5-((3-(5-(dimethylphosphoryl)-1-methyl-1H-pyrazol-3-yl)-2-methoxyphenyl)amino)-6-propionylpyridazin-3-yl)cyclopropanecarboxamide] | 42% | –
13 | CCC(=O)c1cnc(NC(=O)C2CC2)cc1Nc1nccc(-c2cc(P(C)(C)=O)n(C)n2)c1OC [Compound B19, N-(4-((4-(5-(dimethylphosphoryl)-1-methyl-1H-pyrazol-3-yl)-3-methoxypyridin-2-yl)amino)-5-propionylpyridin-2-yl)cyclopropanecarboxamide] | 88% | inhibition at 0.01 µM (TYK2): 41%; inhibition at 0.1 µM (TYK2): 74%; Kd (TYK2 JH2): 0.075 nM
14 | CCC(=O)c1cnc(NC(=O)C2CC2)cc1Nc1cccc(-c2cc(P(C)(C)=O)n(C)n2)c1C#N [Compound B20] | 20% | inhibition at 0.01 µM (TYK2): 7%; inhibition at 0.1 µM (TYK2): 8%
15 | CCC(=O)c1cnc(NC(=O)C2CC2)cc1Nc1cccc(-c2ccc(P(C)(C)=O)nc2)c1OC [Compound B21] | 49% | inhibition at 0.1 µM (TYK2): 6%
16 | CCC(=O)c1cnc(NC(=O)C2CC2)cc1Nc1cc(F)cc(-c2ncc(P(C)(C)=O)cn2)c1OC [Compound B23] | 46% | inhibition at 0.1 µM (TYK2): 8%

The next lines start with results.

Row | inhibition at 1 µM (TYK2) | Structure (SMILES) | also measured
17 | 93% | CCC(=O)c1cnc(NC(=O)C2CC2)cc1Nc1cccc(-c2cc(P(=O)(CC)CC)n(C)n2)c1OC [Compound B24] | inhibition at 0.1 µM (TYK2): 31%; Kd (TYK2 JH2): 0.03 nM
18 | 13% | CCC(=O)c1nnc(NC(=O)C2CC2)cc1Nc1cc(F)cc(-c2cc(P(C)(C)=O)n(C)n2)c1OC [Compound B25] | –
19 | 38% | CCC(=O)c1cnc(NC(=O)C2CC2)cc1Nc1cccc(-c2cc(P(C)(C)=O)cs2)c1OC [Compound B27] | –
20 | 35% | CCC(=O)c1nnc(NC(=O)C2CC2)cc1Nc1cccc(-c2ccc(P(C)(C)=O)cn2)c1OC [Compound B28] | –
21 | 93% | CCC(=O)c1cnc(NC(=O)C2CC2)cc1Nc1nccc(-c2cc(P(=O)(CC)CC)n(C)n2)c1OC [Compound B29] | Kd (TYK2 JH2): 0.01 nM
22 | 75% | CCC(=O)c1cnc(NC(=O)C2CC2)cc1Nc1cccc(-c2cc(P3(=O)CCCC3)n(C)n2)c1OC [Compound B30] | –
23 | 26% | CCC(=O)c1nnc(NC(=O)C2CC2)cc1Nc1cccc(-c2cc(P(C)(C)=O)n(CC)n2)c1OC [Compound B31] | –
24 | 88% | CCC(=O)c1cnc(NC(=O)C2CC2)cc1Nc1cc(F)cc(-c2cc(P(=O)(CC)CC)n(C)n2)c1OC [Compound B32] | Kd (TYK2 JH2): 0.025 nM
25 | 86% | [2H]C([2H])([2H])n1nc(-c2ccnc(Nc3cc(NC(=O)C4CC4)ncc3C(=O)CC)c2OC)cc1P(=O)(CC)CC [Compound B33] | Kd (TYK2 JH2): 0.056 nM
26 | 87% | [2H]C([2H])([2H])n1nc(-c2cccc(Nc3cc(NC(=O)C4CC4)ncc3C(=O)CC)c2OC)cc1P(=O)(CC)CC [Compound B34] | Kd (TYK2 JH2): 0.044 nM
27 | 60% | [2H]C([2H])([2H])n1nc(-c2ccnc(Nc3cc(NC(=O)C4CC4)ncc3C(=O)CC)c2OC)cc1P(C)(C)=O [Compound B35] | Kd (TYK2 JH2): 0.025 nM
28 | 75% | CCC(=O)c1cnc(NC(=O)C2CC2)cc1Nc1nccc(-c2ncc(P(=O)(CC)CC)cn2)c1OC [Compound B36] | –
29 | 80% | CNC(=O)c1nnc(NC(=O)C2CC2)cc1Nc1cccc(-c2cc(P(C)(C)=O)n(C)n2)c1OC [Compound B39] | inhibition at 0.1 µM (TYK2): 34%; Kd (TYK2 JH2): 0.0064 nM
30 | 58% | CNC(=O)c1nnc(NC(=O)C2CC2)cc1Nc1cccc(-c2ncc(P(C)(C)=O)cn2)c1OC [Compound B40] | inhibition at 0.1 µM (TYK2): 33%
31 | 65% | [2H]C([2H])([2H])NC(=O)c1nnc(NC(=O)C2CC2)cc1Nc1cccc(-c2cc(P(C)(C)=O)n(C)n2)c1OC [Compound B42] | –
32 | 84% | CCP(=O)(CC)c1cc(-c2cccc(Nc3cc(NC(=O)C4CC4)nnc3C(=O)NC)c2OC)nn1C [Compound B43] | –
33 | 81% | CNC(=O)c1nnc(NC(=O)C2CC2)cc1Nc1cccc(-c2cc(P(=O)(C3CC3)C3CC3)n(C)n2)c1OC [Compound B44] | –
34 | 95% | [2H]C([2H])([2H])NC(=O)c1nnc(NC(=O)C2CC2)cc1Nc1cccc(-c2cc(P(=O)(CC)CC)n(C)n2)c1OC [Compound B45] | inhibition at 0.05 µM (TYK2): 44%; inhibition at 0.2 µM (TYK2): 83%
35 | 96% | CCC(=O)c1cnc(NC(=O)C2CC2)cc1Nc1ncnc(-c2cc(P(=O)(C3CC3)C3CC3)n(C)n2)c1OC [Compound B46, N-(4-((6-(5-(dicyclopropylphosphoryl)-1-methyl-1H-pyrazol-3-yl)-5-methoxypyrimidin-4-yl)amino)-5-propionylpyridin-2-yl)cyclopropanecarboxamide] | inhibition at 0.05 µM (TYK2): 70%; inhibition at 0.2 µM (TYK2): 88%

Source: patent publication US20240343747A1, “Heteroaryl compounds as inhibitors of TYK2, composition and application thereof” (Accro Bioscience (HK) Limited, priority 2021, published 2024)
